# Test system: SEM cells
# Test: cell viability relative to DMSO control; higher = less cytotoxic
# Conditions: 48 h
# Procedure, shortened: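 Three leukemia lines were tested: NOMO1 and SEM at 500 cells/well and P12-Ichikawa at 1000 cells/well. Each was adapted for at least four passages in each medium and seeded in 5 μl in 1536-well plates, and library compounds in DMSO were pin-dosed from 47 μM to 0.79 nM in 11 threefold steps. After 48 h at 37°C, CellTiter-Glo One luminescence was read. Viability is a percentage relative to DMSO wells on each plate, with cell-free wells as background.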
# [1] = HPLM + 10% dialyzed FBS, 0.000781 µM
# [2] = HPLM + 10% dialyzed FBS, 0.00234 µM
# [3] = HPLM + 10% dialyzed FBS, 0.00702 µM
# [4] = HPLM + 10% dialyzed FBS, 0.0211 µM
# [5] = HPLM + 10% dialyzed FBS, 0.0632 µM
# [6] = HPLM + 10% dialyzed FBS, 0.19 µM
# [7] = HPLM + 10% dialyzed FBS, 0.569 µM
# [8] = HPLM + 10% dialyzed FBS, 1.71 µM
# [9] = HPLM + 10% dialyzed FBS, 5.12 µM
# [10] = HPLM + 10% dialyzed FBS, 15.4 µM
# [11] = HPLM + 10% dialyzed FBS, 46.1 µM
# [12] = RPMI 5 mM glucose + 10% FBS, 0.000781 µM
# [13] = RPMI 5 mM glucose + 10% FBS, 0.00234 µM
# [14] = RPMI 5 mM glucose + 10% FBS, 0.00702 µM
# [15] = RPMI 5 mM glucose + 10% FBS, 0.0211 µM
# [16] = RPMI 5 mM glucose + 10% FBS, 0.0632 µM
# [17] = RPMI 5 mM glucose + 10% FBS, 0.19 µM
# [18] = RPMI 5 mM glucose + 10% FBS, 0.569 µM
# [19] = RPMI 5 mM glucose + 10% FBS, 1.71 µM
# [20] = RPMI 5 mM glucose + 10% FBS, 5.12 µM
# [21] = RPMI 5 mM glucose + 10% FBS, 15.4 µM
# [22] = RPMI 5 mM glucose + 10% FBS, 46.1 µM
# [23] = RPMI 5 mM glucose + 10% dialyzed FBS, 0.000781 µM
# [24] = RPMI 5 mM glucose + 10% dialyzed FBS, 0.00234 µM
# [25] = RPMI 5 mM glucose + 10% dialyzed FBS, 0.00702 µM
# [26] = RPMI 5 mM glucose + 10% dialyzed FBS, 0.0211 µM
# [27] = RPMI 5 mM glucose + 10% dialyzed FBS, 0.0632 µM
# [28] = RPMI 5 mM glucose + 10% dialyzed FBS, 0.19 µM
# [29] = RPMI 5 mM glucose + 10% dialyzed FBS, 0.569 µM
# [30] = RPMI 5 mM glucose + 10% dialyzed FBS, 1.71 µM
# [31] = RPMI 5 mM glucose + 10% dialyzed FBS, 5.12 µM
# [32] = RPMI 5 mM glucose + 10% dialyzed FBS, 15.4 µM
# [33] = RPMI 5 mM glucose + 10% dialyzed FBS, 46.1 µM
SMILES,cell viability [1],cell viability [2],cell viability [3],cell viability [4],cell viability [5],cell viability [6],cell viability [7],cell viability [8],cell viability [9],cell viability [10],cell viability [11],cell viability [12],cell viability [13],cell viability [14],cell viability [15],cell viability [16],cell viability [17],cell viability [18],cell viability [19],cell viability [20],cell viability [21],cell viability [22],cell viability [23],cell viability [24],cell viability [25],cell viability [26],cell viability [27],cell viability [28],cell viability [29],cell viability [30],cell viability [31],cell viability [32],cell viability [33]
CCc1cncnc1N1CCN(Cc2nc3cc(C(F)(F)F)ccc3[nH]2)CC1,107%,104%,111%,101%,106%,105%,105%,97.1%,88.2%,62.4%,35.5%,93.8%,109%,106%,99.9%,101%,108%,96.2%,94.7%,84.3%,62%,23.7%,73.3%,112%,111%,109%,103%,105%,81.2%,98.2%,84.4%,60.8%,22.1%
Cn1c(=O)c2c(ncn2C)n(C)c1=O.O=C(O)CC(O)(CC(=O)O)C(=O)O,124%,117%,110%,111%,112%,128%,118%,114%,122%,121%,106%,117%,107%,112%,107%,117%,106%,115%,96.1%,103%,110%,89.7%,113%,114%,120%,123%,112%,124%,115%,114%,117%,124%,112%
COc1cc2nc(N(C)CCCNC(=O)C3CCCO3)nc(N)c2cc1OC (stereo not given),53.9%,66.5%,58.9%,80.3%,84.7%,84.9%,75.5%,89.3%,74.2%,79.2%,73.3%,60.7%,61.4%,64.1%,71.7%,87.1%,102%,82.9%,75.3%,73.4%,76.4%,62.2%,69.7%,67.7%,69.5%,97.7%,89%,93.7%,74.1%,87.3%,75%,77.4%,67.2%
C/C=C1\NC(=O)[C@H]2CSSCC/C=C\[C@H](CC(=O)N[C@H](C(C)C)C(=O)N2)OC(=O)[C@H](C(C)C)NC1=O,81.1%,89%,95.1%,101%,5.64%,4.52%,4.32%,4.63%,4.25%,3.1%,4.21%,100%,103%,105%,81.5%,4.85%,4.94%,4.25%,4.39%,4.14%,3.14%,4.36%,73%,106%,85.9%,90.4%,5.18%,4.76%,4.87%,4.53%,4.12%,2.58%,4.19%
OC(=O)C1=CC=C(NC2=NC3=C(C\N=C(/C4=CC(=CC=C34)Cl)C5=C(F)C=CC=C5F)C=N2)C=C1,88.5%,98.5%,87.5%,97.9%,101%,96%,114%,65.8%,59.7%,36.9%,40.3%,96%,93%,113%,99.9%,109%,91%,109%,60.2%,37.3%,28.4%,23.2%,88.6%,98.5%,86%,105%,90.8%,95.7%,107%,58.6%,39%,28.4%,32.2%
Cc1ccc(NC(=O)c2ccc(CN3CCN(C)CC3)cc2)cc1Nc1nc(-c2cccnc2)cs1,56.2%,90.4%,87.9%,65.4%,53.1%,47.6%,42.4%,32.7%,28.2%,20.2%,24.6%,64.8%,99%,93.2%,71.2%,70.9%,51.7%,43.7%,34.8%,23.6%,15.7%,17.1%,54.5%,88.4%,74.7%,65.1%,63.6%,46.7%,37.5%,29.7%,22.1%,10.9%,18%
COC[C@H]1OC(=O)C2=COC3=C2[C@@]1(C)\C4=C(C5CCC(=O)[C@@]5(C)C[C@H]4OC(C)=O)/C3=O (stereo not given in full),72.1%,84.9%,96.8%,17.5%,99.5%,93%,93.6%,95.6%,85.6%,82%,95.3%,90.8%,107%,101%,14.7%,109%,102%,107%,111%,81.5%,92.2%,80.3%,89.2%,84.6%,88.9%,16.4%,88.6%,85.1%,94.8%,82.9%,77.1%,63.5%,50.9%
NC1(Cc2ccc(Cl)cc2)CCN(c2ncnc3[nH]ccc23)CC1,103%,106%,96%,100%,92.8%,91.6%,95.7%,75.7%,66.9%,6.62%,2.55%,107%,117%,118%,116%,112%,106%,86.1%,79.6%,59.8%,4.37%,2.8%,106%,98.6%,99.7%,92.7%,81.8%,83.7%,82.9%,74.5%,54.7%,6.24%,2.65%
COC1=CC2=NC=CC(=C2C=C1)OC3=CN=C(NC(=O)C/4=C(C)/N(CC(C)(C)O)N(C4=O)C5=CC=CC=C5)C=C3,82.3%,84.7%,63.1%,83.6%,89.4%,86.1%,79.1%,52.1%,32.7%,36.4%,31%,108%,96.2%,91.6%,108%,103%,99%,82%,60.9%,29.3%,36%,31%,74.1%,82.1%,76.7%,77.8%,79.4%,80%,60.5%,50.3%,32.8%,33.2%,27.4%
O=C(NOCC(O)CO)c1cc(Br)c(F)c(F)c1Nc1ccc(I)cc1F (stereo not given),66.2%,76.3%,73%,78.6%,77.2%,83%,80.4%,62.4%,46.3%,60.7%,44.1%,63.8%,92%,76.8%,90.1%,94.4%,80.3%,70.8%,69.3%,52.7%,45.7%,37%,73.3%,95.8%,67.4%,83.1%,81.6%,67.5%,54.1%,61.1%,39%,37.1%,42.1%
CC1(C)CCC[C@]2(C)[C@H]3CC(=O)O[C@]3(C)CC[C@@H]12,101%,103%,102%,116%,119%,95.2%,116%,118%,115%,101%,93.3%,110%,114%,106%,107%,106%,115%,119%,115%,112%,82.2%,100%,114%,106%,116%,126%,104%,112%,121%,111%,119%,79.2%,99.1%
COc1ccc(CC2NCCc3cc(OC)c(OC)cc32)cc1OC (stereo not given),89.6%,93%,86.6%,85.3%,65.7%,94.2%,93.3%,93.7%,88.4%,79.5%,15.4%,85.2%,84%,82.2%,97.4%,82.4%,99.1%,88.5%,93.5%,97.5%,47%,12.8%,85.9%,78.6%,90.7%,87.3%,71.4%,98.2%,105%,99.9%,95.2%,66.8%,19.3%
Cc1nc(NC(=O)N2CCC[C@H]2C(N)=O)sc1-c1ccnc(C(C)(C)C(F)(F)F)c1,91.6%,98.2%,84.2%,96.9%,93%,72.5%,74.4%,63.3%,59.1%,52.7%,100%,98.7%,111%,102%,121%,112%,91.1%,97.8%,86.6%,74.5%,68.2%,119%,96.3%,95.9%,84%,93%,85.7%,92.3%,86.1%,77.2%,62.2%,58%,89.2%
C#Cc1cccc(Nc2ncnc3cc(OCCOC)c(OCCOC)cc23)c1,93.5%,95.7%,90.4%,95.2%,102%,104%,92.9%,94.7%,71.5%,83%,32.9%,119%,133%,120%,128%,114%,119%,97.1%,115%,77.9%,107%,27.4%,86.8%,104%,90.5%,99.2%,90.2%,93.6%,87.5%,77.9%,59.7%,68.6%,19.9%
CCCCn1c(=O)n(Cc2ccccc2F)c(=O)c2nc(Cc3ccc(NC(C)=O)cc3)[nH]c21,101%,98.7%,87.6%,109%,104%,84.9%,89.8%,97%,98.2%,81.1%,93.7%,101%,102%,105%,89.5%,90.3%,86.9%,88.1%,97.6%,92.1%,96.1%,99.5%,92.9%,91.3%,98.7%,81.5%,110%,85.5%,85%,99%,97.3%,90.9%,91.8%
